The values below are quoted from earlier work in article PMC6225257 (Molecules : A Journal of Synthetic Chemistry and Natural …, 2018).

The conditions of the data set: patients with chronic kidney disease; ref [18]. An excerpt:
Here, we conjugated P88 to a paramagnetic MRI CA comprising a chelator (1,4,7,10-tetraazacyclododecane-1,4,7,10-tetraacetic acid, DOTA) complexed with GdCl3 to solve eventual limitations of the superparamagnetic CAs and pave the way towards future clinical implementation. Gadolinium (Gd)-based CAs (GBCA) are routinely employed in radiology as diagnostic agents.

Consider Gd-DOTA, for which the “effect on renal function” value is on record as “does not affect renal function”.
